pIC50: −log10 of the molar value. Like-named read-outs stand apart in the source and are kept apart here. Positions of bridges follow the written chain, without caps; N, C: chain ends. Non-standard residues stand in square brackets, D forms with d. Residues, ends and D or L forms follow the SMILES beside them. ξ: configuration not given here. *: point of attachment. Phe(2-Me) = Cc1ccccc1C[C@H](N)C(=O)O; Bta = N[C@@H](Cc1csc2ccccc12)C(=O)O; ξPro(4R-OH) = O=C(O)C1C[C@@H](O)CN1; Cyclobutanecarbonyl = O=C(C1CCC1)*; Hyp = O=C(O)[C@@H]1C[C@@H](O)CN1; NMeF = CN[C@@H](Cc1ccccc1)C(=O)O; dHyp = O=C(O)[C@H]1C[C@H](O)CN1; NMeNle = CCCC[C@H](NC)C(=O)O; hSer = N[C@@H](CCO)C(=O)O; NMeA = CN[C@@H](C)C(=O)O; Orn = NCCC[C@H](N)C(=O)O; Dab = NCC[C@H](N)C(=O)O; Dap = NC[C@H](N)C(=O)O; ξC = NC(CS)C(=O)O; Sar = CNCC(=O)O A value given as a limit tells only on which side of the number the result lay.

One experiment concerns the target T1, Human PD-L1/PD-1 (Homo sapiens, UniProt Q9NZQ7).
T1 construct: made in house; host or cells: HEK293T
Description: HTRF PD-1-Ig/PD-L1-His binding assay (human PD-L1). To be noted: cluster symbol; read-out: HTRF IC50 cluster. The gist of the method: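 Readout: time-resolved FRET between Eu cryptate-labeled anti-Ig (1 nM final) and APC-labeled anti-His (20 nM final) antibodies. These detect interaction of Fc-fused PD-1 with His-tagged human PD-L1 in dPBS containing 0.1% BSA and 0.05% Tween-20.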
On the technique in general: In TR-FRET formats the signal depends on donor and acceptor labels being close together.

Experiment [1] has as its target T2, LK35.2-hPD-L1 cells / PE-labeled PD-1-Ig (Homo sapiens, UniProt Q9NZQ7).
T2 construct: expressed in transfected cells; host or cells: LK35.2 mouse B cell line
The experiment is described as follows: LK35.2-hPD-L1 cell binding high-content screening assay. The class given is cell-based. To be noted: cluster symbol, read-out: CBA IC50 cluster. An outline of the steps:
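Binding of PE-conjugated human PD-1-Ig (1 nM final) to human PD-L1 stably expressed on a mouse B-cell line (LK35.2) was measured by high-content imaging after washes. Compound and labeled PD-1-Ig were co-incubated 1 h at 37 °C with cells in RPMI/10% FCS.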

[2] abbreviates: cell line of CBA not given (LK35.2-hPD-L1 or 293T-hPD-L1).
Where [3] appears, read: cell binding assay, cell line not given.

T1 sequence (Q9NZQ7 with tags, fused parts or gaps): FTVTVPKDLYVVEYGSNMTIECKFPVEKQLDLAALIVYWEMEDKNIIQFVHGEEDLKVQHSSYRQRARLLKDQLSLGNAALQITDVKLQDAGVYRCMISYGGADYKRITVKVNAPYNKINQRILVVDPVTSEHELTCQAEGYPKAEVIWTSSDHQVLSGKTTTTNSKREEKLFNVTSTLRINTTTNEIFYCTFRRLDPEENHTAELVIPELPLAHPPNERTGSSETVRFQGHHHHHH
T2 sequence (Q9NZQ7 19-290): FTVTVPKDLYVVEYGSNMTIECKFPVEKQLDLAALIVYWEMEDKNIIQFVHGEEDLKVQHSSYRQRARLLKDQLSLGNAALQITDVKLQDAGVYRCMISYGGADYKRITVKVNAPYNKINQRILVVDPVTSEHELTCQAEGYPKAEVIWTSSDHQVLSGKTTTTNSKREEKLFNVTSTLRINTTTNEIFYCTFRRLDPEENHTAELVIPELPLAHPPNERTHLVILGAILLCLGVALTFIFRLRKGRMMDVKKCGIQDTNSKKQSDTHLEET

Turning to `CCCC[C@H]1C(=O)N(C)[C@@H](CCCC)C(=O)N[C@@H](CCCNC(=N)N)C(=O)N[C@H](C(=O)NCC(N)=O)CSCC(=O)N[C@@H](Cc2ccccc2)C(=O)N(C)[C@@H](C)C(=O)N[C@@H](CC(N)=O)C(=O)N2CCC[C@H]2C(=O)N[C@@H](Cc2cnc[nH]2)C(=O)N[C@@H](CCC(=O)O)C(=O)N(C)CC(=O)N[C@@H](Cc2c[nH]c3ccccc23)C(=O)N[C@@H](CO)C(=O)N[C@@H](Cc2c[nH]c3ccccc23)C(=O)N1C` [Example 1054] ({CH2CO}-F[NMeA]NPHE[Sar]WSW[NMeNle][NMeNle]RCG-NH2; thioether N-14), the pIC50 (as a rule, the IC50 on a negative log10 scale, so that one unit is a factor of ten) at Human PD-L1/PD-1 was 8.17 to 9.41; in experiment [1] (setting [2]), 7.14 to 8.32.
For the compound `CCCC[C@H]1C(=O)N(C)[C@@H](CCCC)C(=O)N[C@@H](CCCNC(=N)N)C(=O)NC(C(=O)NCC(N)=O)CSCC(=O)N[C@@H](Cc2ccc(O)cc2)C(=O)N(C)[C@@H](C)C(=O)N[C@@H](CC(N)=O)C(=O)N2CCC[C@H]2C(=O)N[C@@H](Cc2cnc[nH]2)C(=O)N[C@@H](CCO)C(=O)N2C[C@H](O)C[C@H]2C(=O)N[C@@H](Cc2c[nH]c3ccccc23)C(=O)N[C@@H](CO)C(=O)N[C@@H](Cc2csc3ccccc23)C(=O)N1C` (stereo partly shown) [Example 9050] ({CH2CO}-Y[NMeA]NPH[hSer][Hyp]WS[Bta][NMeNle][NMeNle]R[ξC]G-NH2; thioether N-14), the pIC50 at Human PD-L1/PD-1 was 8.17 to 9.41; in experiment [1] (setting [3]), below 7.13.
As to `CCCC[C@H]1C(=O)N(C)[C@@H](CCCC)C(=O)N[C@@H](CCCN)C(=O)N[C@H](C(=O)NCC(N)=O)CSCC(=O)N[C@@H](Cc2ccc(O)cc2)C(=O)N(C)[C@@H](C)C(=O)N[C@@H](CC(N)=O)C(=O)N2CCC[C@H]2C(=O)N[C@@H](CN)C(=O)N[C@@H](CCC(N)=O)C(=O)N2C[C@H](O)C[C@H]2C(=O)N[C@@H](Cc2c[nH]c3ccccc23)C(=O)N[C@@H](CCN)C(=O)N[C@@H](Cc2csc3ccccc23)C(=O)N1C` [Example 1195] ({CH2CO}-Y[NMeA]NP[Dap]Q[Hyp]W[Dab][Bta][NMeNle][NMeNle][Orn]CG-NH2; thioether N-14), the pIC50 at Human PD-L1/PD-1 was 8.17 to 9.41; in experiment [1] (setting [2]), 8.33 to 9.80.
With `CCCC[C@H]1C(=O)N(C)[C@@H](CCCC)C(=O)N[C@@H](CCCN)C(=O)N[C@H](C(=O)NCC(N)=O)CSCC(=O)N[C@@H](Cc2ccc(O)cc2)C(=O)N2CCCC[C@H]2C(=O)N[C@@H](CC(N)=O)C(=O)N2CCC[C@H]2C(=O)N[C@@H](Cc2cnc[nH]2)C(=O)N[C@@H](CC(C)C)C(=O)N2C[C@H](O)C[C@H]2C(=O)N[C@@H](Cc2c[nH]c3ccccc23)C(=O)N[C@@H](CO)C(=O)N[C@@H](Cc2c[nH]c3ccccc23)C(=O)N1C` [Example 1177], the pIC50 was 8.17 to 9.41 on Human PD-L1/PD-1 and 8.33 to 9.80 in experiment [1] (setting [2]).
Consider `CCCC[C@H]1C(=O)N2C[C@@H](O)C[C@@H]2C(=O)N[C@@H](CC(=O)O)C(=O)N[C@@H](C(C)C)C(=O)N(C)[C@@H](Cc2ccccc2)C(=O)N[C@@H](Cc2ccc(O)cc2)C(=O)N(C)CC(=O)N[C@@H](Cc2c[nH]c3ccccc23)C(=O)N[C@@H](Cc2ccc(O)cc2)C(=O)N[C@@H](CC(C)C)C(=O)N[C@H](C(=O)NCC(N)=O)CSCC(=O)N[C@@H](Cc2ccccc2)C(=O)N(C)[C@@H](Cc2ccccc2)C(=O)N1C` [Example 3588] ({CH2CO}-F[NMeF][NMeNle][dHyp]DV[NMeF]Y[Sar]WYLCG-NH2; thioether N-13), for which the negative-log IC50 (pIC50) was 7.52 to 8.17 at Human PD-L1/PD-1 and 8.33 to 9.80 in experiment [1] (setting [3]).
The corresponding values for `CCCC[C@H]1C(=O)N(C)[C@@H](CCCC)C(=O)N[C@@H](CCCNC(=N)N)C(=O)NC(C(=O)NCC(N)=O)CSCC(=O)N[C@@H](Cc2ccc(O)cc2)C(=O)N(C)[C@@H](C)C(=O)N[C@@H](CC(N)=O)C(=O)N2CCC[C@H]2C(=O)N[C@@H](Cc2cnc[nH]2)C(=O)N[C@@H](CO)C(=O)N2C[C@H](O)C[C@H]2C(=O)N[C@@H](Cc2c[nH]c3ccccc23)C(=O)N[C@@H](CO)C(=O)N[C@@H](Cc2csc3ccccc23)C(=O)N1C` (stereo partly shown) [Example 9070] ({CH2CO}-Y[NMeA]NPHS[Hyp]WS[Bta][NMeNle][NMeNle]R[ξC]G-NH2; thioether N-14) are 7.52 to 8.17 and 8.33 to 9.80.
`CCCC[C@H]1C(=O)N(C)CC(=O)N[C@@H](CC(=O)O)C(=O)N[C@@H](COC)C(=O)N(C)[C@@H](Cc2ccccc2)C(=O)N[C@@H](Cc2ccc(O)cc2)C(=O)N(C)CC(=O)N[C@@H](Cc2c[nH]c3ccccc23)C(=O)N[C@@H](Cc2ccc(O)cc2)C(=O)N[C@@H](CC(C)C)C(=O)N[C@H](C(=O)NCC(N)=O)CSCC(=O)N[C@@H](Cc2ccccc2)C(=O)N(C)[C@@H](Cc2ccccc2)C(=O)N1C` [Example 3155] ({CH2CO}-F[NMeF][NMeNle][Sar]DS(Me)[NMeF]Y[Sar]WYLCG-NH2; thioether N-13): the results for the pIC50 (on Human PD-L1/PD-1; in experiment [1] (setting [2])) were below 7.52 and below 7.13, respectively.
As to `CC(C)C[C@@H]1NC(=O)[C@H](Cc2c[nH]cn2)NC(=O)[C@@H]2CCCN2C(=O)[C@H](CC(N)=O)NC(=O)[C@H](C)N(C)C(=O)[C@H](Cc2ccccc2)NC(=O)CSC[C@@H](C(=O)NCC(N)=O)NC(=O)[C@H](CCCNC(=N)N)NC(=O)[C@H](C)N(C)C(=O)[C@H](CNC(=O)C2CCC2)NC(=O)[C@H](Cc2c[nH]c3ccccc23)NC(=O)[C@H](CO)NC(=O)[C@H](Cc2c[nH]c3ccccc23)NC(=O)CN(C)C1=O` [Example 1033] ({CH2CO}-F[NMeA]NPHL[Sar]WSW[Dap](Cyclobutanecarbonyl)[NMeA]RCG-NH2; thioether N-14), the negative logarithm of the IC50 (pIC50) was below 7.52 on Human PD-L1/PD-1 and below 7.13 in experiment [1] (setting [2]).
`CCCC[C@H]1C(=O)N(C)CC(=O)N[C@@H](CC(=O)O)C(=O)N[C@@H](C(C)C)C(=O)N(C)[C@@H](Cc2ccccc2)C(=O)N[C@@H](Cc2ccc(O)cc2)C(=O)N(C)CC(=O)N[C@@H](Cc2c[nH]c3ccccc23)C(=O)N[C@@H](Cc2ccc(O)cc2)C(=O)N[C@@H](CC(C)C)C(=O)N[C@H](C(=O)NCC(N)=O)CSCC(=O)N[C@@H](Cc2ccccc2C)C(=O)N(C)[C@@H](Cc2ccccc2)C(=O)N1C` [Example 3105] ({CH2CO}-[Phe(2-Me)][NMeF][NMeNle][Sar]DV[NMeF]Y[Sar]WYLCG-NH2; thioether N-13): the pIC50 at Human PD-L1/PD-1 is below 7.52; in experiment [1] (setting [2]), below 7.13.
As for `CCCC[C@H]1C(=O)N(C)[C@@H](CCCC)C(=O)N[C@@H](CC(=O)O)C(=O)N[C@H](C(=O)NCC(N)=O)CSCC(=O)N[C@@H](Cc2ccc(O)cc2)C(=O)N(C)[C@@H](C)C(=O)N[C@@H](CC(=O)O)C(=O)N2CCC[C@H]2C(=O)N[C@@H](Cc2c[nH]cn2)C(=O)N[C@@H](CCCNC(=N)N)C(=O)N2C[C@H](O)CC2C(=O)N[C@@H](Cc2c[nH]c3ccccc23)C(=O)N[C@@H](CCCNC(=N)N)C(=O)N[C@@H](Cc2c[nH]c3ccccc23)C(=O)N1C` (stereo partly drawn) [Example 1203] ({CH2CO}-Y[NMeA]DPHR[ξPro(4R-OH)]WRW[NMeNle][NMeNle]DCG-NH2; thioether N-14), the pIC50 at Human PD-L1/PD-1 is 7.52 to 8.17; in experiment [1] (setting [2]), 8.33 to 9.80.
Take `CCCC[C@H]1C(=O)N(C)[C@@H](CCCC)C(=O)N[C@@H](CCN)C(=O)N[C@H](C(=O)NCC(N)=O)CSCC(=O)N[C@@H](Cc2ccc(O)cc2)C(=O)N(C)[C@@H](C)C(=O)N[C@@H](CC(N)=O)C(=O)N2CCC[C@H]2C(=O)N[C@@H](Cc2cnc[nH]2)C(=O)N[C@@H](CCC(=O)O)C(=O)N2C[C@H](O)C[C@H]2C(=O)N[C@@H](Cc2csc3ccccc23)C(=O)N[C@@H](CCN)C(=O)N[C@@H](Cc2c[nH]c3ccccc23)C(=O)N1C` [Example 5055] ({CH2CO}-Y[NMeA]NPHE[Hyp][Bta][Dab]W[NMeNle][NMeNle][Dab]CG-NH2; thioether N-14): the pIC50 was below 7.52 on Human PD-L1/PD-1 and below 7.13 in experiment [1] (setting [3]).

Values taken from US9850283B2, “Macrocyclic inhibitors of the PD-1/PD-L1 and CD80(B7-1)/PD-L1 protein/protein interactions” (BRISTOL-MYERS SQUIBB COMPANY, priority 2013, dated 2017).
